Broadly, the ED50 is the dose that gives a 50% effect, or the effect in half of the subjects. By melting point is commonly meant the temperature, or range, at which the solid turns liquid.

Results on 4 molecules are retold here after US6656957B1, “Pyridine derivatives” (Novartis AG, priority 1998, dated 2003).

Data set [1] deals with electroshock induced convulsion. As to the kind of experiment: electroshock induced convulsion model. Format: in vivo. To be noted: ip, read-out: anticonvulsive activity ED50. The procedure: At doses of about 10 to 100 mg/kg i.p. or p.o. with pretreatment times of 15 min. to 8 hours, the agents of the invention show anticonvulsive activity in the electroshock induced convulsion model [cf. E. A. Swinyard, J. Pharm. Assoc. Scient. Ed. 38, 201 (1949) and J. Pharmacol. Exptl. Therap. 106, 319 (1952)].
(§1) Preferred compounds for the above mentioned indications include (3-{2-[2-trans-(3,5-dichlorophenyl)-vinyl]-6-methyl-pyridin-3-yloxy}-propyl)-dimethylamine (A), 2-methyl-6-styryl-pyridine (B), 2-(3-fluoro-phenylethynyl)-6-methyl-pyridine (C) and 2-(4-ethoxy-3-trifluoromethyl-phenylethynyl)-6-methyl-pyridine (D).

Another data set has as its system FCA induced hyperalgesia. As to the kind of experiment: Freund complete adjuvant (FCA) induced hyperalgesia model. Format: in vivo. The conditions noted are these: po; post-treatment time 3 hours; read-out: reversal of the hyperalgesia ED50. As for the experimental part: At doses of about 4 to about 40 mg/kg p.o., the agents of the invention show reversal of Freund complete adjuvant (FCA) induced hyperalgesia [cf. J. Donnerer et al., Neuroscience 49, 693-698 (1992) and C. J. Woolf, Neuroscience 62, 327-331 (1994)].
as §1

Like-named read-outs stand apart in the source and are kept apart here.

For `Cc1ccc(OCCCN(C)C)c(/C=C/c2cc(Cl)cc(Cl)c2)n1` [A, (3-{2-[2-trans-(3,5-dichlorophenyl)-vinyl]-6-methyl-pyridin-3-yloxy}-propyl)-dimethylamine], in data set [1] (pretreatment time 4 hours), the ED50 worked out at 30 mg/kg.
With `Cc1cccc(C=Cc2ccccc2)n1` [B, 2-methyl-6-styryl-pyridine], in data set [1] (pretreatment time 15 min.), the ED50 worked out at 35 mg/kg.
Consider `Cc1cccc(C#Cc2cccc(F)c2)n1` [C, 2-(3-fluoro-phenylethynyl)-6-methyl-pyridine], for which the melting point was 26 to 28 °C. Besides, the ED50 in the data set on FCA induced hyperalgesia was 4.2 mg/kg.
For `CCOc1ccc(C#Cc2cccc(C)n2)cc1C(F)(F)F` [D, 2-(4-ethoxy-3-trifluoromethyl-phenylethynyl)-6-methyl-pyridine], the ED50 with FCA induced hyperalgesia was found to be 19 mg/kg.
